Several values for one entry are separate records, joined by “and”; a condition that tells them apart may be missing. Equal entries are not always repeated. Where two headings read alike, the source gives them in different places.
Key:
SFRP-1 [1] = target: T1, SFRP-1 (Homo sapiens, UniProt Q8N474); test: Fluorescence polarization binding assay (competitive displacement of a probe compound from SFRP-1); settings: fluorescence anisotropy, 45 nM SFRP-1, 20 nM probe;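 further: test compound competes with a fluorescent probe held by SFRP-1, seen as a drop in probe anisotropy after incubation in darkness, with anisotropy as function of rising compound dose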
T1 sequence (Q8N474 32-314): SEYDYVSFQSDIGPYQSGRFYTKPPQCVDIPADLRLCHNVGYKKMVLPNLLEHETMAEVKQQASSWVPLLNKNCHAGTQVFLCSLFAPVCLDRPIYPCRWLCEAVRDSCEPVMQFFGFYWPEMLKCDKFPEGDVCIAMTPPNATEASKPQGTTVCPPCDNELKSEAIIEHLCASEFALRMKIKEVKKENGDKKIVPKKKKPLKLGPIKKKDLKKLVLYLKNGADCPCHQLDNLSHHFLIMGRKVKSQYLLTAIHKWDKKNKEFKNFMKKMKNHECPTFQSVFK

SFRP-1 [2] = target: T1, SFRP-1; test: Cell-based assay for in vitro measurement of SFRP-1/SARP2 antagonist activity (U2OS cells co-transfected with 16x TCF-tk-Luciferase reporter, Wnt and hSFRP-1); settings: for fold induction at 10 µM / fold induction at 15 µM: U2OS; for fold induction at 10 µM: read-out: Fold Induction with SFRP-1, U2OS cells, single dose 10 μM, luciferase reporter, fold induction over SFRP-1 control;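 on all read-outs here: U2OS cells co-transfected with a TCF-tk luciferase reporter, a Wnt vector, hSFRP-1 or empty vector and CMV-βgal, luciferase luminescence read in cell lysates alongside βgal activity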
[3] = read-out: Fold Induction with SFRP-1, Conc 15 μM, with SFRP-1, fold induction over SFRP-1 control, single dose
[4] = read-out: Fold Induction without SFRP-1, Conc 15 μM, without SFRP-1, single dose
[5] = read-out: Fold Induction with SFRP-1, Conc 15 μM, single dose, luciferase reporter, fold induction over SFRP-1 control, cells with SFRP-1
[6] = read-out: Fold Induction without SFRP-1, Conc 15 μM, single dose, luciferase reporter, cells without SFRP-1 (specificity control)

IC50 (SFRP-1 [1])	EC50 (SFRP-1 [2]) [nM]	fold induction at 10 µM (SFRP-1 [2])	fold induction at 15 µM (SFRP-1 [2]; [3])	fold induction at 15 µM (SFRP-1 [2]; [4])	fold induction at 15 µM (SFRP-1 [2]; [5])	fold induction at 15 µM (SFRP-1 [2]; [6])	Compound
200 nM	657						O=S(=O)(NCCc1ccc(-c2nn[nH]n2)cc1)c1cc(S(=O)(=O)c2ccccc2)ccc1C(F)(F)F [Example 984, 5-(phenylsulfonyl)-N-{2-[4-(2H-tetrazol-5-yl)phenyl]ethyl}-2-(trifluoromethyl)benzenesulfonamide]
3000 nM	1820	2.7					CC(C)c1ccc(S(=O)(=O)c2ccccc2)cc1S(=O)(=O)NCc1ccncc1 [Example 936, 2-isopropyl-5-(phenylsulfonyl)-N-(pyridin-4-ylmethyl)benzenesulfonamide]
170 nM	726						CN(CCNS(=O)(=O)c1cc(S(=O)(=O)c2ccccc2)ccc1C(F)(F)F)C(=O)N[C@@H]1CCCNC1 [Example 1022, N-[2-(methyl{[(3R)-piperidin-3-ylamino]carbonyl}amino)ethyl]-5-(phenylsulfonyl)-2-(trifluoromethyl)benzenesulfonamide]
300 nM	675	2.9					CC(C)(C)OC(=O)N1CCC(CNS(=O)(=O)c2cc(S(=O)(=O)c3ccccc3)ccc2C(F)(F)F)CC1 [Example 896, tert-butyl 4-[({[5-(phenylsulfonyl)-2-(trifluoromethyl)phenyl]sulfonyl}amino)methyl]piperidine-1-carboxylate]
600 nM					3.2	1.1	CNc1ccc(S(=O)(=O)c2ccc(C(C)C)c(S(=O)(=O)NCCc3ccccn3)c2)cc1Cl [Example 605, 5-{[3-chloro-4-(methylamino)phenyl]sulfonyl}-2-isopropyl-N-(2-pyridin-2-ylethyl)benzenesulfonamide]
160 nM	500	4.4					O=S(=O)(NC1CCNCC1)c1cc(S(=O)(=O)c2ccc(NCCO)cc2)ccc1C(F)(F)F [Example 844, 5-({4-[(2-hydroxyethyl)amino]phenyl}sulfonyl)-N-piperidin-4-yl-2-(trifluoromethyl)benzenesulfonamide]
180 nM	1080	3.4					O=C(c1ccccc1)c1cccc(C(=O)N2CCC(NS(=O)(=O)c3cc(S(=O)(=O)c4ccccc4)ccc3C(F)(F)F)CC2)c1 [Example 801, N-[1-(3-benzoylbenzoyl)piperidin-4-yl]-5-(phenylsulfonyl)-2-(trifluoromethyl)benzenesulfonamide]
300 nM	2360	2.8					COc1ccc(NC(=O)N(C)CCNS(=O)(=O)c2cc(S(=O)(=O)c3ccccc3)ccc2C(F)(F)F)c(OC)c1 [Example 828, N-{2-[{[(2,4-dimethoxyphenyl)amino]carbonyl}(methyl)amino]ethyl}-5-(phenylsulfonyl)-2-(trifluoromethyl)benzenesulfonamide]
2000 nM			2.3	1.1			Cc1ccc(S(=O)(=O)c2ccccc2)cc1S(=O)(=O)NC1CCN(C(=O)OC(C)(C)C)CC1 [Example 446, tert-butyl 4-({[2-methyl-5-(phenylsulfonyl)phenyl]sulfonyl}amino)piperidine-1-carboxylate]
800 nM and 1700 nM					2.7	1.2	CC(C)c1ccc(S(=O)(=O)c2ccc(N(C)C)cc2)cc1S(=O)(=O)NC1CCOCC1 [Example 544, 5-{[4-(dimethylamino)phenyl]sulfonyl}-2-isopropyl-N-(tetrahydro-2H-pyran-4-yl)benzenesulfonamide]
200 nM	> 10000						COc1ccc(CNS(=O)(=O)c2cc(S(=O)(=O)c3ccccc3)ccc2C(F)(F)F)c(OC)c1 [Example 1021, N-(2,4-dimethoxybenzyl)-5-(phenylsulfonyl)-2-(trifluoromethyl)benzenesulfonamide]
700 nM	2100	3.9					CN(CCNS(=O)(=O)c1cc(S(=O)(=O)c2ccccc2)ccc1C(F)(F)F)C(=O)c1cccnc1 [Example 849, N-Methyl-N-[2-({[5-(phenylsulfonyl)-2-(trifluoromethyl)phenyl]sulfonyl}amino)ethyl]nicotinamide]

The remaining lines, values behind:

Compound	IC50 (SFRP-1 [1])	EC50 (SFRP-1 [2]) [nM]	fold induction at 10 µM (SFRP-1 [2])	fold induction at 15 µM (SFRP-1 [2]; [3])	fold induction at 15 µM (SFRP-1 [2]; [4])	fold induction at 15 µM (SFRP-1 [2]; [5])	fold induction at 15 µM (SFRP-1 [2]; [6])
CN(CCNS(=O)(=O)c1cc(S(=O)(=O)c2ccccc2)ccc1C(F)(F)F)C(=O)N[C@H]1CCCNC1 [Example 1023, N-[2-(methyl{[(3S)-piperidin-3-ylamino]carbonyl}amino)ethyl]-5-(phenylsulfonyl)-2-(trifluoromethyl)benzenesulfonamide]	210 nM	547					
CC(C)(C)OC(=O)N[C@H]1CC[C@H](NS(=O)(=O)c2cc(S(=O)(=O)c3ccccc3)ccc2C(F)(F)F)CC1 [Example 901, tert-butyl [trans-4-({[5-(phenylsulfonyl)-2-(trifluoromethyl)phenyl]sulfonyl}amino)cyclohexyl]carbamate]	450 nM	224	3.4				
CN(CCO)CCNS(=O)(=O)c1cc(S(=O)(=O)c2ccccc2)ccc1C(F)(F)F [Example 905, N-{2-[(2-hydroxyethyl)(methyl)amino]ethyl}-5-(phenylsulfonyl)-2-(trifluoromethyl)benzenesulfonamide]	2600 nM	3660	1.5				
Cc1ccc(S(=O)(=O)c2ccccc2)cc1S(=O)(=O)NC1CCN(C(=O)C2CCCCC2)CC1 [Example 471, N-[1-(cyclohexylcarbonyl)piperidin-4-yl]-2-methyl-5-(phenylsulfonyl)benzenesulfonamide]	2200 nM			2.1	1.1		
Cc1ccc(S(=O)(=O)c2ccc(NCC3CC3)cc2)cc1S(=O)(=O)NCCCn1ccnc1 [Example 368, 5-({4-[(cyclopropylmethyl)amino]phenyl}sulfonyl)-N-[3-(1H-imidazol-1-yl)propyl]-2-methylbenzenesulfonamide]	900 nM			2.5	1		
O=C(c1ccc(OC(F)(F)F)cc1)N1CCC(NS(=O)(=O)c2cc(S(=O)(=O)c3ccccc3)ccc2C(F)(F)F)CC1 [Example 709, 5-(phenylsulfonyl)-N-{1-[4-(trifluoromethoxy)benzoyl]piperidin-4-yl}-2-(trifluoromethyl)benzenesulfonamide]	400 nM	2350	4.5				
CSc1ccc(C(=O)N2CCC(NS(=O)(=O)c3cc(S(=O)(=O)c4ccccc4)ccc3C(F)(F)F)CC2)cc1 [Example 1050, N-{1-[4-(methylthio)benzoyl]piperidin-4-yl}-5-(phenylsulfonyl)-2-(trifluoromethyl)benzenesulfonamide]	170 nM	660					
CC(C(N)=O)N1CCC(NS(=O)(=O)c2cc(S(=O)(=O)c3ccccc3)ccc2C(F)(F)F)CC1 (centres unmarked) [Example 1003, 2-[4-({[5-(phenylsulfonyl)-2-(trifluoromethyl)phenyl]sulfonyl}amino)piperidin-1-yl]propanamide]	140 nM	399					
O=S(=O)(NC1c2ccccc2CC1O)c1cc(S(=O)(=O)c2ccccc2)ccc1C(F)(F)F (centres unmarked) [Example 823, N-(2-hydroxy-2,3-dihydro-1H-inden-1-yl)-5-(phenylsulfonyl)-2-(trifluoromethyl)benzenesulfonamide]	800 nM	3000	2.6				
O=C(c1c(F)cc(F)cc1F)N1CCC(NS(=O)(=O)c2cc(S(=O)(=O)c3ccccc3)ccc2C(F)(F)F)CC1 [Example 717, 5-(phenylsulfonyl)-N-[1-(2,4,6-trifluorobenzoyl)piperidin-4-yl]-2-(trifluoromethyl)benzenesulfonamide]	170 nM	1290	5.3				
N#CCCNS(=O)(=O)c1cc(S(=O)(=O)c2ccccc2)ccc1Cl [Example 643, 2-chloro-N-(2-cyanoethyl)-5-(phenylsulfonyl)benzenesulfonamide]	2400 nM					3.2	1
CN(CCNS(=O)(=O)c1cc(S(=O)(=O)c2ccccc2)ccc1C(F)(F)F)C(=O)c1ccncc1 [Example 850, N-Methyl-N-[2-({[5-(phenylsulfonyl)-2-(trifluoromethyl)phenyl]sulfonyl}amino)ethyl]isonicotinamide]	600 nM	1520	3.5				
CN(CCCNS(=O)(=O)c1cc(S(=O)(=O)c2ccccc2)ccc1C(F)(F)F)C(=O)N1CCNCC1 [Example 975, N-methyl-N-[3-({[5-(phenylsulfonyl)-2-(trifluoromethyl)phenyl]sulfonyl}amino)propyl]piperazine-1-carboxamide]	1500 nM	5700					
COc1ccccc1S(=O)(=O)c1ccc(C(C)C)c(S(=O)(=O)NCCc2ccccn2)c1 [Example 457, 2-isopropyl-5-[(2-methoxyphenyl)sulfonyl]-N-(2-pyridin-2-ylethyl)benzenesulfonamide]	1100 nM			2.9	1		

Source: patent US20060276464A1, “Diarylsulfone sulfonamides and use thereof” (Wyeth, priority 2005, published 2006)
